For series [1], the system named is murine model of skin injury. The settings on record: cited from earlier work.
In series [2] the test system is lung fibrosis lung fibroblasts. The settings on record: cited from earlier work.
Series [3] deals with human colonic myofibroblasts. The settings on record: cited from earlier work.
Series [4] concerns HS746T cell line. Nature of the series: CCK-8 assay, MRTF A inhibitor and cisplatin alone or in combination. Type of series: cell-based, human. Conditions: 5 μg/ml inhibitor, after 24 hours 5 μM cisplatin, CCK-8 24 hours later, FIG. 8. As for the experimental part: In the same manner as described above, 5 μg/ml CCG-232601, CCG-203971 or CCG-222740 was first administered to the HS746T cell line, and after 24 hours, 5 μM cisplatin (CDDP) was administered to the cell line, and 24 hours after administration of CDDP, a CCK-8 assay was performed using a cell viability assay kit.
For orientation: Tetrazolium dyes change colour on reduction, which living cells bring about.

Series [5] has as its system preclinical fibrosis model. Conditions: cited from earlier work.
Series [6] relates to alpha smooth muscle actin protein. Conditions: cited from earlier work.
The subject of series [7] is HS746T. In words: Oxygen consumption rate (OCR) and extracellular acidification rate (ECAR), extracellular flux analyzer. Format: cell-based, human. As for the experimental part:
(§1) In particular, in order to confirm that the CCG-232601 compound has an excellent inhibitory effect against the growth of cancer stem cells, the oxygen consumption rate (OCR) and extracellular acidification rate (ECAR) of the stern-like cell lines HS746T and MKN1 having high resistance to metabolic stress were measured and the results are FIG. 2. More specifically, each of the cell lines was inoculated at a confluency of 70 to 80% in Seahorse normal culture medium, and oxygen consumption rate (OCR, pmol/min/μg protein) and extracellular acidification rate (ECAR, mpH/min/μg protein) were analyzed using an XF96 or XFp extracellular flux analyzer (Agilent) to determine mitochondrial oxidation and glycolysis levels. Mitochondrial oxidation ability of the cells pretreated for 1 hour with or without 10 mM β-HB (Sigma) was evaluated using the Seahorse XF Mito Stress Kit (Agilent). To overcome changes in oxidation and glycolysis processes upon treatment with CCG-232601, the cells were pretreated overnight with vehicle or the inhibitor, and finally 10 mM β-hydroxybutyrate was added upon the first injection.

In series [8] the test system is MKN1. The series is described as above. Type of series: cell-based, human. The protocol:
as §1

Series [9] concerns HS746T. Nature of the series: Transwell invasion assay. Format: cell-based, human. The settings on record: 10 μg/ml, 12 hours, matrigel transwell, FIG. 3. As for the experimental part:
(§2) Transwell invasion assay was performed with or without CCG-232601 treatment. Invasion ability was measured using a 6.5-mm transwell with an 8.0 μm-pore polycarbonate membrane insert (Corning) after coating with matrigel (Corning) diluted with serum-free medium to 0.67 μg/μl. Then, 2×10^4 cells per well were suspended in 200 μl of serum-free medium with vehicle or 10 μg/ml CCG-232601, and 1,000 μl of culture medium containing 10% FBS was added to the lower chamber. After 12 hours, the transferred cells were stained with 0.2% crystal violet and observed under an optical microscope. The average number of cells penetrating the membrane was counted with ImageJ (NIH) in three randomly selected high-power fields and two independent experiments, and the results are shown in FIG. 3.

The test system of series [10] is MKN1. In words: Transwell invasion assay. Type of series: cell-based, human. Conditions: MKN1, 10 μg/ml, 12 hours, matrigel transwell, FIG. 3. As for the experimental part:
as §2

Series [11] has as its system MKN1 cell line. In words: CCK-8 assay, CCG-232601 and cisplatin alone or in combination. Type of series: cell-based, human. Conditions: FIG. 6. As for the experimental part:
Accordingly, in order to evaluate the effect of co-administration of the compound CCG-232601, the survival and growth inhibitory effects upon administration of cisplatin (CDDP) and CCG-232601 alone or in combination to the MKN1 cell line were evaluated using a cell viability assay kit (Cell Counting Kit-8; CCK-8). Unlike administration alone, to evaluate the effect of co-administration, 5 μg/ml CCG-232601 was first administered to the MKN1 cell line, and 24 hours after administration of CCG-232601, 5 μM cisplatin (CDDP) was administered to the cell line, and 24 hours after administration of CDDP, CCK-8 assay was performed using a cell viability assay kit.

The test system of series [12] is HS746T. Nature of the series: Cell viability (CCK-8), treatment alone, Example 1. Format: cell-based, human. Conditions: HS746T stem-like cell line, different concentrations, 48 hours, FIG. 1. The protocol:
(§3) In order to evaluate the ability to inhibit the growth or metastasis of cancer cell lines or cancer stem cell lines in Examples of the present invention, the present inventors obtained the cell lines MKN1 and HS746T having human gastric cancer stem cell characteristics, and the human gastric cancer cell lines SNU601, YCC7 and NCIN87, from the American Type Culture Collection (ATCC) and the Korean Cell Line Bank (KCRB). The cell lines were cultured in different culture media under different culture conditions according to the ATCC or KCRB guides. The MKN1, SNU601, and NCIN87 cell lines were cultured in RPMI1640 media containing 10% fetal bovine serum (FBS), 2 mM L-glutamine, 100 U/ml penicillin and 100 μg/ml streptomycin, and the HS746T and YCC7 cell lines were cultured in DMEM media containing 10% FBS, 2 mM L-glutamine, 100 U/ml penicillin and 100 μg/ml streptomycin. All the cell lines were cultured at 37° C. under 5% CO2, and mycoplasma contamination tests were performed.
(§4) The cell lines cultured in the Preparation Example were seeded into well plates at a density of 1×10^4 cells per well, and cultured overnight at 37° C. under 5% CO2. Next, each of the gastric cancer stem-like cell lines HS746T and MKN1 and the gastric cancer cell lines YCC7 and NCIN87 was treated with different concentrations of each of the anticancer drug cisplatin (CDDP), which is currently widely used in the treatment of gastric cancer patients, and the MRTF A inhibitor CCG-232601 compound, and after 48 hours, the number of cells was counted and the results are shown in FIG. 1. 100 μL of each cell culture and 10 μL of reaction buffer (CCK) were mixed together, placed in a 96-well plate, incubated for 1 hour at room temperature, and then measured for absorbance at a wavelength of 450 nm using a spectrophotometer (Synergy HTX Multi-Reader, BioTek, Winooski, VT, USA). At the same time, the number of cells in each sample was counted using a cell viability assay kit (Cell Counting Kit-8), and the counted value was expressed relative to the cell number of the negative control group so that the same cell number in each cell could be compared with the cell number of the negative control group. The experimental results are shown as the mean values of the repeated experiments.

Series [13] relates to YCC7. Nature of the series: Cell viability (CCK-8), treatment alone, Example 1. Format: cell-based, human. Conditions: YCC7 gastric cancer cell line, different concentrations, 48 hours, FIG. 1. The protocol:
as §3, §4

Series [14] has as its system MKN1. In words: Cell viability (CCK-8), treatment alone, Example 1. Format: cell-based, human. Conditions: MKN1 stem-like cell line, different concentrations, 48 hours, FIG. 1. The protocol: as §3, §4
In series [15] the test system is NCIN87. Nature of the series: Cell viability (CCK-8), treatment alone, Example 1. Format: cell-based, human. Conditions: NCIN87 gastric cancer cell line, different concentrations, 48 hours, FIG. 1. The protocol:
as §3, §4

Series [16] deals with HS746T cell line. In words: CCK-8 assay, CCG-232601 and oxaliplatin alone or in combination. Format: cell-based, human. As for the experimental part:
In order to examine whether the co-administration of the compound CCG-232601 is also effective in improving drug sensitivity to other platinum-based anticancer drugs of the same family as cisplatin, the survival and growth inhibitory effects upon administration of CCG-232601 and oxaliplatin alone or in combination to the HS746T cell line were evaluated using a cell viability assay kit (Cell Counting Kit-8; CCK-8). Unlike administration alone, to evaluate the effect of co-administration, 5 μg/ml CCG-232601 was first administered to the HS746T cell line, and 24 hours after administration of CCG-232601, 24 μg/ml oxaliplatin was administered to the cell line, and 24 hours after administration of oxaliplatin, CCK-8 assay was performed using a cell viability assay kit.

Series [17] deals with bleomycin-induced dermal fibrosis. The settings on record: administered orally to mice; cited from earlier work.
The test system of series [18] is HS746T. Nature of the series: Drug sensitivity upon treatment with cisplatin (CDDP). Type of series: cell-based, human. The protocol: (§5) Drug sensitivity upon treatment with cisplatin (CDDP) was measured in the gastric cancer cell lines SNU601 and NCIN87 and the cell lines HS746T and MKN1 having gastric cancer stem cell-like characteristics, and the results are shown in FIG. 3.

Series [19] deals with MKN1. The series is described as above. Format: cell-based, human. The protocol:
as §5

SMILES strings stand for the structures.

Turning to `O=C(Nc1ccc(Cl)cc1)C1CCCN(C(=O)c2cccc(-c3ccco3)c2)C1` (centres unmarked) [CCG-203971, N-(4-chlorophenyl)-1-(3-(furan-2-yl)benzoyl)piperidine-3-carboxamide], the antifibrotic activity result in series [1] and in series [2] was “shows antifibrotic activity” each time. Also, in series [3], the “matrix stiffness and TGF-β-mediated fibrogenesis” value is given as “represses”. Besides, the “drug sensitivity to cisplatin in combination versus cisplatin alone” value in series [4] is “drug sensitivity was improved”.

As to `O=C(Nc1ccc(Cl)cc1)C1CN(C(=O)c2cccc(-c3ccco3)c2)CC(F)(F)C1` (centres unmarked) [CCG-222740, N-(4-chlorophenyl)-5,5-difluoro-1-(3-(furan-2-yl)benzoyl)piperidine-3-carboxamide], the scar tissue formation result in series [5] is “effectively prevent scar tissue formation”. Moreover, in [4], the “drug sensitivity to cisplatin in combination versus cisplatin alone” value is given as “drug sensitivity was improved”. For the same compound, the “expression of alpha smooth muscle actin protein” value in series [6] was “prevent the expression”.

With `O=C(Nc1ccc(Cl)cc1)C1CN(C(=O)c2cccc(-c3ccncc3)c2)CC(F)(F)C1` (centres unmarked) [CCG-232601, N-(4-chlorophenyl)-5,5-difluoro-1-(3-(pyridin-4-yl)benzoyl)piperidine-3-carboxamide], the “susceptibility to glucose deprivation” value in [7] (conclusion from OCR/ECAR results) is “greatly increased the susceptibility”; in [8] (MKN1, conclusion from OCR/ECAR results), “greatly increased the susceptibility”. The “glycolytic ECAR versus OCR (mitochondrial respiration)” value in [7] (pretreated overnight with inhibitor, FIG. 2) is “ECAR was higher than the OCR”; in series [8] (MKN1, pretreated overnight with inhibitor, FIG. 2) it was “ECAR was higher than the OCR”. For the same compound, the “invasion and metastasis (cells penetrating the membrane)” value in [9] is “reduced the invasion and metastasis”; in [10] it was “reduced the invasion and metastasis”. The “reduction of cell viability” value in series [11] (MKN1, administered alone, compared to negative control group and cisplatin-alone group) is listed as 20%. For the same compound, the “antitumor effect (cell number relative to negative control)” value in [12], in series [13], in [14] and in series [15] was “exhibited antitumor effects” in each case. For the same compound, in series [16] (Homo sapiens, 5 μg/ml CCG-232601, after 24 hours 24 μg/ml oxaliplatin, CCK-8 24 hours later, FIG. 7, read-out: reduction of cell viability compared to oxaliplatin alone), the cytotoxicity at 5 µg/mL was at least 20%. The “growth of the cancer stem-like cells, administered alone” value in [16] (administered alone, FIG. 7) was “reduced the growth”. Further, the “development of bleomycin-induced dermal fibrosis” value in [17] is on record as “suppress the development”. The “drug sensitivity to cisplatin in combination versus cisplatin alone” value in [4] is reported as “drug sensitivity was improved”.

As for `N.N.[Cl][Pt][Cl]` [cisplatin], the “effect on cell viability, administered alone” value in series [11] (MKN1, cisplatin alone) is given as “drug resistance”. The “antitumor effect (cell number relative to negative control)” value in series [12] and in series [14] was “exhibited significantly improved antitumor effects” in each case. Further, the “drug sensitivity lower than that of the cancer cell lines” value in [18] (HS746T versus SNU601 and NCIN87, FIG. 4) is listed as 20 to 40%; in series [19] (MKN1 versus SNU601 and NCIN87, FIG. 4), 20 to 40%. For the same compound, the “resistance of the cell line to cisplatin” value in series [18] (HS746T, FIG. 4) is listed as “showed resistance”; in series [19] (MKN1, FIG. 4), “showed resistance”.

The record behind these values is patent US20240148713A1 (INDUSTRY-ACADEMIC COOPERATION FOUNDATION, YONSEI UNIVERSITY, priority 2021, published 2024).
